According to patent US10385024B2, “Compounds and methods for inhibiting NHE-mediated antiport in the treatment of disorders associated with fluid retention or salt overload and gastrointestinal tract disorders” (Ardelyx, Inc., priority 2012, dated 2019):

Assays:
Rat NHE-3 [1] = biological target: T1, Rat NHE-3 (Rattus norvegicus, UniProt P26433); experiment: Cell-based assay of NHE-3 activity (rat NHE-3 prompt inhibition); conditions: OK cells with rat NHE-3 gene, compound present during pH recovery; read-out: Rat NHE3 pIC50 (prompt) (converted)
T1 construct: expressed in transfected cells; host or cells: Opossum kidney (OK) cells (ATCC), transfected by electroporation
Method: (§1) Rat or human NHE-3-mediated Na^+-dependent H^+ antiport was measured using a modification of the pH sensitive dye method originally reported by Paradiso (Proc. Natl. Acad. Sci. USA. (1984) 81(23): 7436-7440). Opossum kidney (OK) cells were obtained from the ATCC and propagated per their instructions. The rat NHE-3 gene (GenBank M85300) or the human NHE-3 gene (GenBank NM_004174.1) was introduced into OK cells via electroporation, and cells were seeded into 96 well plates and grown overnight. Medium was aspirated from the wells, cells were washed twice with NaCl-HEPES buffer (100 mM NaCl, 50 mM HEPES, 10 mM glucose, 5 mM KCl, 2 mM CaCl2, 1 mM MgCl2, pH 7.4), then incubated for 30 min at room temperature with NH4Cl-HEPES buffer (20 mM NH4Cl, 80 mM NaCl, 50 mM HEPES, 5 mM KCl, 2 mM CaCl2, 1 mM MgCl2, pH 7.4) containing 5 μM bis(acetoxymethyl) 3,3′-(3′,6′-bis(acetoxymethoxy)-5-((acetoxymethoxy)carbonyl)-3-oxo-3H-spiro[isobenzofuran-1,9′-xanthene]-2′,7′-diyl)dipropanoate (BCECF-AM). Cells were washed twice with Ammonium free, Na^+-free HEPES (100 mM choline, 50 mM HEPES, 10 mM glucose, 5 mM KCl, 2 mM CaCl2, 1 mM MgCl2, pH 7.4) and incubated in the same buffer for 10 minutes at room temperature to lower intracellular pH. […] Initial rates were plotted as the average 2 or more replicates, and pIC50 values were estimated using GraphPad Prism.

human NHE-3 = biological target: T2, human NHE-3 (Homo sapiens, UniProt P48764); experiment: Cell-based assay of NHE-3 activity (human NHE3 inhibition assay); conditions: OK cells with human NHE-3 gene, BCECF pH dye, 0-30 μM test compound; for IC50: read-out: Human NHE3 pIC50 (converted)
T2 construct: expressed in transfected cells; host or cells: Opossum kidney (OK) cells (ATCC), transfected by electroporation
T2 sequence (P48764 26-834): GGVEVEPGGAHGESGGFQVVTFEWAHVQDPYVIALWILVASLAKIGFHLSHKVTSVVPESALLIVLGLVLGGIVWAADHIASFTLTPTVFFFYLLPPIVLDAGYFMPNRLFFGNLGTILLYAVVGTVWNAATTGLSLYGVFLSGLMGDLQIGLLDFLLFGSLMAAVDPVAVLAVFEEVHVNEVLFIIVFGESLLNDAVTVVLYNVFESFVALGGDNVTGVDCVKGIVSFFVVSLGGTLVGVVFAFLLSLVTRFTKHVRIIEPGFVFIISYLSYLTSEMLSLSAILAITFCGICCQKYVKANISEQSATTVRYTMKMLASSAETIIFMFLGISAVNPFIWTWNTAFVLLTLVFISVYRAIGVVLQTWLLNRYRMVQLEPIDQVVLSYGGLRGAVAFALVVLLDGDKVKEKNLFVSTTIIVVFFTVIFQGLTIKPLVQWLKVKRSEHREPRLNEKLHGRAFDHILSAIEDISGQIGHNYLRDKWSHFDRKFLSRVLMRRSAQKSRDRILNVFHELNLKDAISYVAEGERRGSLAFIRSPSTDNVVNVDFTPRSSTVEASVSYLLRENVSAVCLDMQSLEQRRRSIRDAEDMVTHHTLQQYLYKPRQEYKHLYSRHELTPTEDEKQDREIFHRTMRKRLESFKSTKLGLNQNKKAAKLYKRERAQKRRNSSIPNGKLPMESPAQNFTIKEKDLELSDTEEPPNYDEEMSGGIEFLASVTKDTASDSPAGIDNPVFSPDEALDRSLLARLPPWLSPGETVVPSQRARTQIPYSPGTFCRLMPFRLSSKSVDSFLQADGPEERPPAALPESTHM
Method: as §1

Rat NHE-3 [2] = biological target: T1, Rat NHE-3; experiment: Cell-based assay of NHE-3 activity (persistent inhibition, after washout); conditions: OK cells with rat NHE-3 gene, 60 min incubation, recovery initiated 40 min after compound washout; read-out: Rat NHE3 pIC50 (persistent) (converted)
Method: The ability of compounds to inhibit Rat NHE-3-mediated Na^+-dependent H^+ antiport after application and washout was measured using a modification of the pH sensitive dye method described above in Example 74. Opossum kidney (OK) cells were obtained from the ATCC and propagated per their instructions. The rat NHE-3 gene was introduced into OK cells via electroporation, and cells were seeded into 96 well plates and grown overnight. Medium was aspirated from the wells, cells were washed twice with NaCl-HEPES buffer (100 mM NaCl, 50 mM HEPES, 10 mM glucose, 5 mM KCl, 2 mM CaCl2, 1 mM MgCl2, pH 7.4), then overlayed with NaCl-HEPES buffer containing 0-30 μM test compound. After a 60 min incubation, the test drug containing buffer was aspirated from the cells, cells were washed twice with NaCl-HEPES buffer without drug, then incubated for 30 min at room temperature with NH4Cl-HEPES buffer (20 mM NH4Cl, 80 mM NaCl, 50 mM HEPES, 5 mM KCl, 2 mM CaCl2, 1 mM MgCl2, pH 7.4) containing 5 μM BCECF-AM. Cells were washed twice with ammonium free, Na^+-free HEPES (100 mM choline, 50 mM HEPES, 10 mM glucose, 5 mM KCl, 2 mM CaCl2, 1 mM MgCl2, pH 7.4) and incubated in the same buffer for 10 minutes at room temperature to lower intracellular pH. […] Initial rates were plotted as the average 2 or more replicates, and pIC50 values were estimated using GraphPad Prism.

T1 sequence (P26433 29-831): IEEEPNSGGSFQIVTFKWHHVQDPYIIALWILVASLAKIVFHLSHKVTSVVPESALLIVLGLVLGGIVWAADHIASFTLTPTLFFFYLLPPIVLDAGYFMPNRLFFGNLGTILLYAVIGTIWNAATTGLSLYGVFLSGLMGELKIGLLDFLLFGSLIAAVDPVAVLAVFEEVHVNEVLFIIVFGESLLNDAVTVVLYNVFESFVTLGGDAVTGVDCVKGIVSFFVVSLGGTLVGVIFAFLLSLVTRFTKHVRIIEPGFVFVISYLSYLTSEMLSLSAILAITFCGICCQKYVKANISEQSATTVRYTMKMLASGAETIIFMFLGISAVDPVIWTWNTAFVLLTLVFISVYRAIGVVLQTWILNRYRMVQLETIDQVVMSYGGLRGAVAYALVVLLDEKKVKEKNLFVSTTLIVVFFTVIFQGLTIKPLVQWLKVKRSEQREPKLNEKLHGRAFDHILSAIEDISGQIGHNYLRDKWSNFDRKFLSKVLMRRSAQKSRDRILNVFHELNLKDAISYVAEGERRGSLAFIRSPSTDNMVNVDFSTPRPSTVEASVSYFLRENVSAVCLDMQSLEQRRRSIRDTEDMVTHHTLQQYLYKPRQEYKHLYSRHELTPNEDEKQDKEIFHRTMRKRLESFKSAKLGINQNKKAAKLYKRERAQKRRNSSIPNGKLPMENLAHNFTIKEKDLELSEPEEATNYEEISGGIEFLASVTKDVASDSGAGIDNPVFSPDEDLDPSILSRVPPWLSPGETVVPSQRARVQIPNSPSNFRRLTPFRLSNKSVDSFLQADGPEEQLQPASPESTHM

Compound | IC50 (Rat NHE-3 [1]) | IC50 (human NHE-3) | IC50 (Rat NHE-3 [2]) | Human NHE3 pIC50 (human NHE-3)
CN1Cc2c(Cl)cc(Cl)cc2[C@H](c2cccc(S(=O)(=O)NCCOCCOCCNC(=O)CCC(CCC(=O)NCCOCCOCCNS(=O)(=O)c3cccc([C@@H]4CN(C)Cc5c(Cl)cc(Cl)cc54)c3)(CCC(=O)NCCOCCOCCNS(=O)(=O)c3cccc([C@@H]4CN(C)Cc5c(Cl)cc(Cl)cc54)c3)[N+](=O)[O-])c2)C1 [Example 1, N1,N7-bis(2-(2-(2-(3-((S)-6,8-dichloro-2-methyl-1,2,3,4-tetrahydroisoquinolin-4-yl)phenylsulfonamido)ethoxy)ethoxy)ethyl)-4-(3-(2-(2-(2-(3-((S)-6,8-dichloro-2-methyl-1,2,3,4-tetrahydroisoquinolin-4-yl)phenylsulfonamido)ethoxy)ethoxy)ethylamino)-3-oxopropyl)-4-nitroheptanediamide] | 0.1 to 10 µM | 0.1 to 10 µM | < 0.1 µM | 
CN1Cc2c(Cl)cc(Cl)cc2[C@H](c2cccc(S(=O)(=O)NCCOCCOCCOCCNC(=O)CCC(CCC(=O)NCCOCCOCCOCCNS(=O)(=O)c3cccc([C@@H]4CN(C)Cc5c(Cl)cc(Cl)cc54)c3)(CCC(=O)NCCOCCOCCOCCNS(=O)(=O)c3cccc([C@@H]4CN(C)Cc5c(Cl)cc(Cl)cc54)c3)NC(=O)Nc3ccccc3)c2)C1 [Example 13, 4-(1-(3-((S)-6,8-dichloro-2-methyl-1,2,3,4-tetrahydroisoquinolin-4-yl)phenylsulfonamido)-13-oxo-3,6,9-trioxa-12-azapentadecan-15-yl)-N^1,N^7-bis(2-(2-(2-(2-(3-((S)-6,8-dichloro-2-methyl-1,2,3,4-tetrahydroisoquinolin-4-yl)phenylsulfonamido)ethoxy)ethoxy)ethoxy)ethyl)-4-(3-phenylureido)heptanediamide] | 0.1 to 10 µM | 0.1 to 10 µM | < 0.1 µM | 
CCCCCCCCCCC(=O)NC(CCC(=O)NCCOCCOCCOCCNS(=O)(=O)c1cccc([C@@H]2CN(C)Cc3c(Cl)cc(Cl)cc32)c1)(CCC(=O)NCCOCCOCCOCCNS(=O)(=O)c1cccc([C@@H]2CN(C)Cc3c(Cl)cc(Cl)cc32)c1)CCC(=O)NCCOCCOCCOCCNS(=O)(=O)c1cccc([C@@H]2CN(C)Cc3c(Cl)cc(Cl)cc32)c1 [Example 15, 4-(1-(3-((S)-6,8-dichloro-2-methyl-1,2,3,4-tetrahydroisoquinolin-4-yl)phenylsulfonamido)-13-oxo-3,6,9-trioxa-12-azapentadecan-15-yl)-N^1,N^7-bis(2-(2-(2-(2-(3-((S)-6,8-dichloro-2-methyl-1,2,3,4-tetrahydroisoquinolin-4-yl)phenylsulfonamido)ethoxy)ethoxy)ethoxy)ethyl)-4-undecanamidoheptanediamide] | > 10 µM | 0.1 to 10 µM | 0.1 to 10 µM | 
CN1Cc2c(Cl)cc(Cl)cc2[C@H](c2cccc(S(=O)(=O)NCCOCCOCCOCCNC(=O)CCC(CCC(=O)NCCOCCOCCOCCNS(=O)(=O)c3cccc([C@@H]4CN(C)Cc5c(Cl)cc(Cl)cc54)c3)(CCC(=O)NCCOCCOCCOCCNS(=O)(=O)c3cccc([C@@H]4CN(C)Cc5c(Cl)cc(Cl)cc54)c3)NC(=O)c3ccc(-c4ccc(Cl)cc4)cc3)c2)C1 [Example 16, 4-(4′-chlorobiphenyl-4-ylcarboxamido)-4-(1-(3-((S)-6,8-dichloro-2-methyl-1,2,3,4-tetrahydroisoquinolin-4-yl)phenylsulfonamido)-13-oxo-3,6,9-trioxa-12-azapentadecan-15-yl)-N^1,N^7-bis(2-(2-(2-(2-(3-((S)-6,8-dichloro-2-methyl-1,2,3,4-tetrahydroisoquinolin-4-yl)phenylsulfonamido)ethoxy)ethoxy)ethoxy)ethyl)heptanediamide] | 0.1 to 10 µM | > 10 µM | 0.1 to 10 µM | 

Continued, values first:

IC50 (Rat NHE-3 [1]) | IC50 (human NHE-3) | IC50 (Rat NHE-3 [2]) | Human NHE3 pIC50 (human NHE-3) | Compound
0.1 to 10 µM | 0.1 to 10 µM | > 10 µM |  | CN1Cc2c(Cl)cc(Cl)cc2[C@H](c2cccc(S(=O)(=O)NCCOCCOCCOCCn3cc(CN(Cc4cn(CCOCCOCCOCCNS(=O)(=O)c5cccc([C@@H]6CN(C)Cc7c(Cl)cc(Cl)cc76)c5)nn4)Cc4cn(CCOCCOCCOCCNS(=O)(=O)c5cccc([C@@H]6CN(C)Cc7c(Cl)cc(Cl)cc76)c5)nn4)nn3)c2)C1 [Example 18, (S,S)—N,N′,N″-(2,2′,2″-(2,2′,2″-(2,2′,2″-(2,2′,2″-(4,4′,4″-nitrilotris(methylene)tris(1H-1,2,3-triazole-4,1-diyl))tris(ethane-2,1-diyl))tris(oxy)tris(ethane-2,1-diyl))tris(oxy)tris(ethane-2,1-diyl))tris(oxy)tris(ethane-2,1-diyl))tris(3-((S)-6,8-dichloro-2-methyl-1,2,3,4-tetrahydroisoquinolin-4-yl)benzenesulfonamide)]
 |  |  | B (B NHE3 pIC50 5-7) | CN1Cc2c(Cl)cc(Cl)cc2[C@H](c2cccc(S(=O)(=O)NCCOCCOCCNC(=O)CCC(CCC(=O)NCCOCCOCCNS(=O)(=O)c3cccc([C@@H]4CN(C)Cc5c(Cl)cc(Cl)cc54)c3)(CCC(=O)NCCOCCOCCNS(=O)(=O)c3cccc([C@@H]4CN(C)Cc5c(Cl)cc(Cl)cc54)c3)NC(=O)c3ccc(-c4ccc(Cl)cc4)cc3)c2)C1 [Example 35]
 |  |  | B (B NHE3 pIC50 5-7) | CN1Cc2c(Cl)cc(Cl)cc2[C@H](c2cccc(S(=O)(=O)NCCOCCOCCNC(=O)CN(CCOCCOCCN(CC(=O)NCCOCCOCCNS(=O)(=O)c3cccc([C@@H]4CN(C)Cc5c(Cl)cc(Cl)cc54)c3)CC(=O)NCCOCCOCCNS(=O)(=O)c3cccc([C@@H]4CN(C)Cc5c(Cl)cc(Cl)cc54)c3)CC(=O)NCCOCCOCCNS(=O)(=O)c3cccc([C@@H]4CN(C)Cc5c(Cl)cc(Cl)cc54)c3)c2)C1 [Example 50]
 |  |  | C (C NHE3 pIC50 > 7) | CN1Cc2c(Cl)cc(Cl)cc2[C@H](c2cccc(S(=O)(=O)NCCOCCOCCNC(=O)NCCN(CCNC(=O)NCCOCCOCCNS(=O)(=O)c3cccc([C@@H]4CN(C)Cc5c(Cl)cc(Cl)cc54)c3)C(=O)NCCCCNC(=O)N(CCNC(=O)NCCOCCOCCNS(=O)(=O)c3cccc([C@@H]4CN(C)Cc5c(Cl)cc(Cl)cc54)c3)CCNC(=O)NCCOCCOCCNS(=O)(=O)c3cccc([C@@H]4CN(C)Cc5c(Cl)cc(Cl)cc54)c3)c2)C1 [Example 60]
 |  |  | C (C NHE3 pIC50 > 7) | CN1Cc2c(Cl)cc(Cl)cc2[C@H](c2cccc(S(=O)(=O)NCCOCCOCCN(C)C(=O)CCC(CCC(=O)N(C)CCOCCOCCNS(=O)(=O)c3cccc([C@@H]4CN(C)Cc5c(Cl)cc(Cl)cc54)c3)(CCC(=O)N(C)CCOCCOCCNS(=O)(=O)c3cccc([C@@H]4CN(C)Cc5c(Cl)cc(Cl)cc54)c3)N(C)C)c2)C1 [Example 71]
